Results: publication PMC12473246, “An Improved Ratiometric FRET Biosensor with Higher Affinity for Extracellular ATP” (Sensors (Basel, Switzerland), 2025)
Where two headings read alike, the source gives them in different places.

How the values were obtained:
ecATeam3.10 = target: T1, ecATeam3.10 (Bacillus sp. PS3, UniProt A0A0M5MQR7); assay: FRET ratio live-cell imaging dose response; type: cell-based; conditions: read-out: apparent dissociation constant
T1 construct: gene uncC; expressed on Neuro2A or HEK293 cells

ECATS2 (DM-20) = target: T2, ECATS2 (DM-20) (Bacillus sp. PS3, UniProt A0A0M5MQR7, R103A/R115A); assay: FRET ratio live-cell imaging dose response; type: cell-based
T2 construct: gene uncC; double-mutant epsilon subunit between mseCFP and mVenus, 20 nm alpha-helical ER/K linker to PDGFR transmembrane domain
T2 sequence (A0A0M5MQR7 1-133, stated change not applied): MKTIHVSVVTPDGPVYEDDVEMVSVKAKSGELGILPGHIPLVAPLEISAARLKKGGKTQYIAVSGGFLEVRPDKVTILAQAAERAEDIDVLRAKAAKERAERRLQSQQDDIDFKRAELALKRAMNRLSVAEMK

T1 sequence (A0A0M5MQR7 1-133): as the sequence (A0A0M5MQR7 1-133, stated change not applied) above

SMILES	Kd (ecATeam3.10) [µM]	Kd (ECATS2 (DM-20); read-out: apparent dissociation constant) [µM]	Kd (ECATS2 (DM-20); read-out: apparent ADP dissociation constant) [µM]
Nc1ncnc2c1ncn2[C@@H]1O[C@H](COP(=O)(O)OP(=O)(O)OP(=O)(O)O)[C@@H](O)[C@H]1O [ATP]	12 ± 5	3.7 ± 0.6	
Nc1ncnc2c1ncn2[C@@H]1O[C@H](COP(=O)(O)OP(=O)(O)O)[C@@H](O)[C@H]1O [ADP]			~100
